Reference: US7632844B2, “2-hydroxy-6-phenylphenanthridines as PDE-4 inhibitors” (Nycomed GmbH, priority 2002, dated 2009)

Experiments:
[1] = system: PDE4 (cytosol from human neutrophils); assay: Inhibition of PDE4 activity, Method a ([3H]cAMP hydrolysis, cytosol from human neutrophils); assay type: biochemical; design: unit not given here; conditions: 0.5 μM cAMP, Motapizone 1 μM
Procedure: PDE4 activity was determined as described by Thompson et al. (Adv Cycl Nucl Res 10: 69-92, 1979) with some modifications (Bauer and Schwabe, Naunyn-Schmiedeberg's Arch Pharmacol 311: 193-198, 1980). At a final assay volume of 200 μl (96 well microtiter plates) the assay mixture contained 20 mM Tris (pH 7.4), 5 mM MgCl2, 0.5 μM cAMP, [^3H]cAMP (about 30,000 cpm/assay), the test compound and an aliquot of cytosol from human neutrophils which mainly contains PDE4 activity as described by Schudt et al. (Naunyn-Schmiedeberg's Arch Pharmacol 344: 682-690, 1991); the PDE3-specific inhibitor Motapizone (1 μM) was included to suppress PDE3 activity originating from contaminating platelets. Serial dilutions of the compounds were prepared in DMSO and further diluted 1:100 (v/v) in the assays to obtain the desired final concentrations of the inhibitors at a DMSO concentration of 1% (v/v) which by itself only slightly affected PDE4 activity.
After preincubation for 5 min at 37° C., the reaction was started by the addition of substrate (cAMP) and the assays were incubated for further 15 min at 37° C. 50 μl of 0.2 N HCl was added to stop the reaction and the assays were left on ice for about 10 min. Following incubation with 25 μg 5′-nucleotidase (Crotalus atrox snake venom) for 10 min at 37° C., the assays were loaded on QAE Sephadex A-25 (1 ml bed volume). The columns were eluted with 2 ml of 30 mM ammonium formiate (pH 6.0) and the eluate was counted for radioactivity. Results were corrected for blank values (measured in the presence of denatured protein) which were below 5% of total radioactivity. […] The IC50-values for the compounds according to the invention for the inhibition of the PDE4 activity were determined from the concentration-inhibition curves by nonlinear-regression.

Compound	melting point	Inhibition of the PDE4 activity, −log IC50 [1]
COc1cc2c(cc1OC)C1CC(O)CCC1N=C2c1ccc(OCC2CC2)c(OCC2CC2)c1 (racemic) [Compound 7, (±)-(2RS,4aRS,10bRS)-6-(3,4-Bis-cyclopropylmethoxyphenyl)-8,9-dimethoxy-(1,2,3,4,4a,10b)-hexahydrophenanthridin-2-ol]	83 to 92 °C	8.98
COc1cc2c(cc1OC)C1CC(O)CCC1N=C2c1ccc(C(=O)O)cc1 (racemic) [Compound 12, (±)-(2RS,4aRS,10bRS)-6-(4-Carboxyphenyl)-8,9-dimethoxy-(1,2,3,4,4a,10b)-hexahydro-phenanthridin-2-ol]	172 to 183 °C	8.25
COc1cc2c(cc1OC)C1CC(O)CCC1N=C2c1ccc(N(C)C)cc1 (racemic) [Compound 9, (±)-(2RS,4aRS,10bRS)-6-(4-Dimethylaminophenyl)-8,9-dimethoxy-(1,2,3,4,4a,10b)-hexahydrophenanthridin-2-ol]	115 to 121 °C	7.13
COc1cc2c(cc1OC)C1CC(O)CCC1N=C2c1ccc([N+](=O)[O-])cc1 (racemic) [Compound 11, (±)-(2RS,4aRS, 10bRS)-6-(4-Nitrophenyl)-8,9-dimethoxy-(1,2,3,4,4a,10b)-hexahydrophenanthridin-2-ol]	178 to 181 °C	9.11
COc1ccc(C2=NC3CCC(O)CC3c3cc(OC)c(OC)cc32)cc1OC (racemic) [Compound 10, (±)-(2RS,4aRS,10bRS)-6-(3,4-Dimethoxyphenyl)-8,9-dimethoxy-(1,2,3,4,4a,10b)-hexahydrophenanthridin-2-ol]	104 to 110 °C	8.71
COc1cc2c(cc1OC)C1CC(O)CCC1N=C2c1ccc(OCC2CC2)c(OCC2CC2)c1 (racemic) [Compound 13, (±)-(2SR,4aRS, 10bRS)-6-(3,4-Bis-cyclopropylmethoxyphenyl)-8,9-dimethoxy-(1,2,3,4,4a,10b)-hexahydrophenanthridin-2-ol]	114 to 118 °C	8.12
COc1cc2c(cc1OC)C1CC(OC(C)=O)CCC1N=C2c1ccc([N+](=O)[O-])cc1 (racemic) [Compound 5, (±)-Acetic acid (2RS,4aRS,10bRS)-6-(4-nitrophenyl)-8,9-dimethoxy-(1,2,3,4,4a,10b)-hexahydrophenanthridin-2-yl ester]	77 to 88 °C	7.09
COC(=O)c1ccc(C2=NC3CCC(O)CC3c3cc(OC)c(OC)cc32)cc1 (racemic) [Compound 8, (±)-(2RS,4aRS,10bRS)-6-(4-Methoxycarbonylphenyl)-8,9-dimethoxy-(1,2,3,4,4a,10b)-hexahydrophenanthridin-2-ol]	94 to 105 °C	9.21
COc1cc2c(cc1OC)C1CC(OC(C)=O)CCC1N=C2c1ccc(OCC2CC2)c(OCC2CC2)c1 (racemic) [Compound 6, (±)-Acetic acid (2SR,4aRS,10bRS)-6-(3,4-bis-cyclopropylmethoxyphenyl)-8,9-dimethoxy-(1,2,3,4,4a,10b)-hexahydrophenanthridin-2-yl ester]	–	7.26
